Assay results taken from PubChem BioAssay (NCI).
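Following 48 hours of exposure in 96-well plates, responses at five concentrations were used to interpolate endpoints linearly. TGI: concentration producing complete growth inhibition.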

Key:
Assay in all cases: NCI anticancer screen, dose series, 48 h
[1] = tested on: 786-0 renal
[2] = tested on: A549 NSCLC
[3] = tested on: ACHN renal
[4] = tested on: BT-549 breast
[5] = tested on: CAKI-1 renal
[6] = tested on: COLO 205 colon
[7] = tested on: DU-145 prostate
[8] = tested on: EKVX NSCLC
[9] = tested on: HCC-2998 colon
[10] = tested on: HOP-62 NSCLC
[11] = tested on: HOP-92 NSCLC
[12] = tested on: HS 578T breast
[13] = tested on: HT29 colon
[14] = tested on: IGROV1 ovarian
[15] = tested on: KM12 colon
[16] = tested on: M14 melanoma
[17] = tested on: MALME-3M melanoma
[18] = tested on: MCF7 breast
[19] = tested on: MDA-MB-435
[20] = tested on: MDA-N
[21] = tested on: NCI-H226 lung
[22] = tested on: NCI-H23 lung
[23] = tested on: NCI-H460 lung
[24] = tested on: NCI-H522 lung
[25] = tested on: NCI/ADR-RES ovarian
[26] = tested on: OVCAR-3 ovarian
[27] = tested on: OVCAR-5 ovarian
[28] = tested on: OVCAR-8 ovarian
[29] = tested on: PC-3 prostate
[30] = tested on: RPMI-8226 leukemia
[31] = tested on: RXF 393 renal
[32] = tested on: SF-268 CNS
[33] = tested on: SF-295 CNS
[34] = tested on: SF-539 CNS
[35] = tested on: SK-MEL-2 melanoma
[36] = tested on: SK-MEL-28 melanoma
[37] = tested on: SK-MEL-5 melanoma
[38] = tested on: SK-OV-3 ovarian
[39] = tested on: SN12C renal
[40] = tested on: SNB-19 CNS
[41] = tested on: SNB-75 CNS
[42] = tested on: SR leukemia
[43] = tested on: SW-620 colon
[44] = tested on: T-47D breast
[45] = tested on: TK-10 renal
[46] = tested on: U251 CNS
[47] = tested on: UACC-257 melanoma
[48] = tested on: UACC-62 melanoma
[49] = tested on: UO-31 renal
[50] = tested on: CCRF-CEM leukemia
[51] = tested on: HCT-116 colon
[52] = tested on: HCT-15 colon
[53] = tested on: K-562 leukemia
[54] = tested on: MDA-MB-231 breast
[55] = tested on: A498 renal
[56] = tested on: HL-60(TB) leukemia
[57] = tested on: LOX IMVI melanoma
[58] = tested on: MOLT-4 leukemia
[59] = tested on: OVCAR-4 ovarian

O=C(NC(CCCCN1C(=O)c2ccccc2C1=O)P(=O)(Oc1ccccc1)Oc1ccccc1)OCc1ccccc1 (stereo not drawn)
TGI [1]: > 100 µM | TGI [2]: > 100 µM | TGI [3]: > 100 µM | TGI [4]: > 100 µM | TGI [5]: > 100 µM | TGI [6]: > 100 µM | TGI [7]: > 100 µM | TGI [8]: > 100 µM | TGI [9]: > 100 µM | TGI [10]: > 100 µM | TGI [11]: > 100 µM | TGI [12]: > 100 µM | TGI [13]: > 100 µM | TGI [14]: > 100 µM | TGI [15]: > 100 µM | TGI [16]: > 100 µM | TGI [17]: > 100 µM | TGI [18]: > 100 µM | TGI [19]: > 100 µM | TGI [20]: > 100 µM | TGI [21]: > 100 µM | TGI [22]: > 100 µM | TGI [23]: > 100 µM | TGI [24]: > 100 µM | TGI [25]: > 100 µM | TGI [26]: > 100 µM | TGI [27]: > 100 µM | TGI [28]: > 100 µM | TGI [29]: > 100 µM | TGI [30]: > 100 µM | TGI [31]: > 100 µM | TGI [32]: > 100 µM | TGI [33]: > 100 µM | TGI [34]: > 100 µM | TGI [35]: > 100 µM | TGI [36]: > 100 µM | TGI [37]: > 100 µM | TGI [38]: > 100 µM | TGI [39]: > 100 µM | TGI [40]: > 100 µM | TGI [41]: > 100 µM | TGI [42]: > 100 µM | TGI [43]: > 100 µM | TGI [44]: > 100 µM | TGI [45]: > 100 µM | TGI [46]: > 100 µM | TGI [47]: > 100 µM | TGI [48]: > 100 µM | TGI [49]: > 100 µM

CC(=O)c1cccc(Nc2nc3ccccc3c3[nH]c4ccccc4c23)c1
TGI [1]: 11.7 µM | TGI [2]: 15.3 µM | TGI [3]: 40.5 µM | TGI [4]: > 100 µM | TGI [5]: 23.4 µM | TGI [50]: > 100 µM | TGI [6]: 5.81 µM | TGI [7]: > 100 µM | TGI [8]: 21.4 µM | TGI [51]: > 100 µM | TGI [52]: > 100 µM | TGI [10]: 42 µM | TGI [11]: 22.2 µM | TGI [12]: > 100 µM | TGI [13]: 17 µM | TGI [14]: 22.3 µM | TGI [53]: > 100 µM | TGI [15]: > 100 µM | TGI [16]: > 100 µM | TGI [17]: 13.2 µM | TGI [18]: 4.22 µM | TGI [54]: 51.6 µM | TGI [19]: 71.1 µM | TGI [20]: > 100 µM | TGI [22]: > 100 µM | TGI [23]: 4.36 µM | TGI [24]: 8.11 µM | TGI [25]: > 100 µM | TGI [26]: 6.56 µM | TGI [27]: 96.3 µM | TGI [28]: 74.9 µM | TGI [29]: 40.9 µM | TGI [30]: 9.25 µM | TGI [32]: 17.3 µM | TGI [33]: 15.9 µM | TGI [34]: 18 µM | TGI [35]: 24.2 µM | TGI [38]: 43.7 µM | TGI [39]: > 100 µM | TGI [40]: > 100 µM | TGI [43]: > 100 µM | TGI [44]: 33.5 µM | TGI [45]: 37 µM | TGI [46]: 16.4 µM | TGI [47]: > 100 µM | TGI [48]: 5.71 µM | TGI [49]: > 100 µM

CC[C@]1(Cc2ccc(OC)c(OC)c2)C=[N+]([O-])O[C@H](OCc2ccccc2)[C@@H]1OC(C)=O
TGI [1]: > 100 µM | TGI [55]: > 100 µM | TGI [2]: > 100 µM | TGI [3]: > 100 µM | TGI [5]: 80.9 µM | TGI [50]: 55.6 µM | TGI [6]: 34.5 µM | TGI [7]: 93.5 µM | TGI [8]: 67.5 µM | TGI [9]: > 100 µM | TGI [52]: > 100 µM | TGI [56]: 36.3 µM | TGI [10]: > 100 µM | TGI [11]: 77.3 µM | TGI [12]: 60.5 µM | TGI [13]: 79.9 µM | TGI [14]: > 100 µM | TGI [53]: 56.8 µM | TGI [15]: 58.8 µM | TGI [57]: 39.5 µM | TGI [16]: > 100 µM | TGI [17]: 52.9 µM | TGI [18]: > 100 µM | TGI [54]: > 100 µM | TGI [19]: > 100 µM | TGI [20]: > 100 µM | TGI [58]: 27.3 µM | TGI [21]: 53.8 µM | TGI [22]: > 100 µM | TGI [23]: > 100 µM | TGI [24]: 28.5 µM | TGI [25]: > 100 µM | TGI [26]: 42.5 µM | TGI [59]: 95.6 µM | TGI [27]: > 100 µM | TGI [28]: > 100 µM | TGI [29]: 64.3 µM | TGI [30]: 57.9 µM | TGI [31]: 55.4 µM | TGI [32]: 70.9 µM | TGI [33]: > 100 µM | TGI [35]: 79.3 µM | TGI [36]: 84.6 µM | TGI [37]: > 100 µM | TGI [38]: > 100 µM | TGI [40]: > 100 µM | TGI [41]: > 100 µM | TGI [42]: 48.2 µM | TGI [43]: > 100 µM | TGI [44]: > 100 µM | TGI [45]: > 100 µM | TGI [46]: > 100 µM | TGI [47]: > 100 µM | TGI [48]: > 100 µM | TGI [49]: > 100 µM

COc1nc2c(c(=O)[nH]1)N=C(c1ccc(Cl)cc1)CC(c1ccccc1)N2 (stereo not drawn)
TGI [1]: > 100 µM | TGI [55]: > 100 µM | TGI [2]: > 100 µM | TGI [3]: 52.3 µM | TGI [4]: > 100 µM | TGI [5]: 66.2 µM | TGI [50]: 44.9 µM | TGI [6]: > 100 µM | TGI [7]: > 100 µM | TGI [8]: > 100 µM | TGI [9]: > 100 µM | TGI [51]: > 100 µM | TGI [52]: 64.6 µM | TGI [10]: > 100 µM | TGI [11]: 67.9 µM | TGI [13]: > 100 µM | TGI [14]: > 100 µM | TGI [53]: 67.1 µM | TGI [15]: > 100 µM | TGI [57]: 57.1 µM | TGI [16]: 43 µM | TGI [18]: > 100 µM | TGI [54]: 50.8 µM | TGI [19]: > 100 µM | TGI [20]: 76.8 µM | TGI [58]: > 100 µM | TGI [21]: > 100 µM | TGI [22]: > 100 µM | TGI [23]: 69.3 µM | TGI [24]: 48.6 µM | TGI [25]: 75.4 µM | TGI [26]: > 100 µM | TGI [59]: 57.4 µM | TGI [27]: > 100 µM | TGI [28]: 60.9 µM | TGI [29]: > 100 µM | TGI [30]: 65.8 µM | TGI [31]: 61.4 µM | TGI [33]: 70.7 µM | TGI [34]: 42.1 µM | TGI [35]: 60.1 µM | TGI [36]: 54.1 µM | TGI [37]: 36.8 µM | TGI [39]: 47.1 µM | TGI [40]: > 100 µM | TGI [41]: 54.9 µM | TGI [42]: > 100 µM | TGI [43]: > 100 µM | TGI [46]: > 100 µM | TGI [47]: > 100 µM | TGI [48]: 46.6 µM | TGI [49]: > 100 µM
